Laboratory results from the supplement of paper PMC10307832.

Legend:
Assay in all cases: relative viability (nuclei count vs DMSO), 5 days (fraction); higher = more cells survive
[1] = compound: C[C@]12O[C@H](C[C@]1(O)CO)n1c3ccccc3c3c4c(c5c6ccccc6n2c5c31)CNC4=O [Lestaurtinib] + CC1(C)CCC(c2ccc(Cl)cc2)=C(CN2CCN(c3ccc(C(=O)NS(=O)(=O)c4ccc(N[C@H](CCN5CCOCC5)CSc5ccccc5)c(S(=O)(=O)C(F)(F)F)c4)cc3)CC2)C1 [Navitoclax] (partner 0.5 µM)
Method in brief: (§1)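 Relative viability equals treated-well nuclei counts divided by vehicle-well nuclei counts. Counts came from 4× images of lung cancer cell lines grown in 1536-well plates for 5 days after pin-tool dosing on the day after seeding. Dosing used one drug alone or a fixed anchor-drug dose plus five library-drug doses (not always all listed) in √10 steps, and values are medians of duplicate plates.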

[2] = compound: C1/C(=C\C2=CC=CS2)/C(=O)/C(=C/C3=CC=CS3)/C1 + CC(=O)c1c(C)c2cnc(Nc3ccc(N4CCNCC4)cn3)nc2n(C2CCCC2)c1=O [Palbociclib] (partner 0.5 µM)
Method in brief: as §1

[3] = compound: C1/C(=C\C2=CC=CS2)/C(=O)/C(=C/C3=CC=CS3)/C1 + CS(=O)(=O)N1CCN(Cc2cc3nc(-c4cccc5[nH]ncc45)nc(N4CCOCC4)c3s2)CC1 [Pictilisib] (partner 1 µM)
Method in brief: as §1

[4] = compound: C[C@]12O[C@H](C[C@]1(O)CO)n1c3ccccc3c3c4c(c5c6ccccc6n2c5c31)CNC4=O [Lestaurtinib] + C[C@]1(O)C[C@@H](c2nc(-c3ccc4ccc(-c5ccccc5)nc4c3)c3c(N)nccn32)C1 [Linsitinib] (partner 1 µM)
Method in brief: as §1

Cell Line | relative viability ([1]; first compound 0.005 µM) | relative viability ([1]; first compound 0.01581 µM) | relative viability ([1]; first compound 0.05 µM) | relative viability ([1]; first compound 0.1581 µM) | relative viability ([1]; first compound 0.5 µM) | relative viability ([2]; first compound 0.2 µM) | relative viability ([2]; first compound 0.6325 µM) | relative viability ([2]; first compound 2 µM) | relative viability ([2]; first compound 6.325 µM) | relative viability ([2]; first compound 20 µM) | relative viability ([3]; first compound 0.2 µM) | relative viability ([3]; first compound 0.6325 µM) | relative viability ([3]; first compound 2 µM) | relative viability ([3]; first compound 6.325 µM) | relative viability ([3]; first compound 20 µM) | relative viability ([4]; first compound 0.005 µM) | relative viability ([4]; first compound 0.01581 µM) | relative viability ([4]; first compound 0.05 µM) | relative viability ([4]; first compound 0.1581 µM) | relative viability ([4]; first compound 0.5 µM)
NCI-H2170 | 0.378 | 0.393 | 0.368 | 0.442 | 0.263 | 0.386 | 0.382 | 0.376 | 0.248 | 0.393 | 0.334 | 0.341 | 0.31 | 0.278 | 0.313 | – | – | – | – | –
NCI-H522 | – | – | – | – | – | 0.855 | 1.33 | 1.03 | 0.735 | 0.917 | – | – | – | – | – | – | – | – | – | –
LCLC-97TM1 | 0.636 | 0.564 | 0.246 | 0.14 | 0.249 | 0.255 | 0.228 | 0.203 | 0.21 | 0.196 | 0.209 | 0.28 | 0.198 | 0.235 | 0.159 | 0.2 | 0.172 | 0.153 | 0.135 | 0.113
NCI-H1299 | 1.02 | 1.06 | 0.946 | 0.845 | 0.489 | – | – | – | – | – | 0.79 | 0.863 | 0.806 | 0.758 | 0.799 | 0.985 | 1.02 | 0.688 | 0.504 | 0.499
NCI-H3122 | 1.13 | 1.1 | 1.12 | 1.12 | 0.536 | 0.178 | 0.175 | 0.172 | 0.201 | 0.171 | 0.681 | 0.579 | 0.718 | 0.466 | 0.642 | 1.11 | 1.09 | 1.01 | 1.08 | 0.527
NCI-H1395 | 1.38 | 1.28 | 1.06 | 0.912 | 0.413 | 0.616 | 0.683 | 0.612 | 0.566 | 0.599 | 0.618 | 0.73 | 0.67 | 0.448 | 0.581 | 1.07 | 1.2 | 0.836 | 0.894 | 0.421
NCI-H2009 | 1.16 | 1.25 | 1.06 | 1.3 | 0.22 | 0.178 | 0.217 | 0.255 | – | 0.208 | 0.911 | 0.959 | 0.833 | 0.691 | 0.846 | 1.25 | 1.23 | 1.09 | 1.01 | 0.581
Calu-6 | 1.01 | 0.797 | 0.506 | 0.468 | 0.106 | – | – | – | – | – | 1.04 | 1.05 | 0.955 | 0.885 | 0.82 | 0.908 | – | 0.555 | 0.262 | 0.218
NCI-H1703 | 1.22 | 1.09 | 0.424 | 0.219 | 0.11 | – | – | – | – | – | 0.278 | 0.247 | 0.259 | 0.227 | 0.248 | 0.513 | 0.508 | 0.562 | 0.164 | 0.149
NCI-H1650 | 1.24 | 1.37 | 1.31 | 1.56 | 0.503 | 0.312 | 0.325 | 0.351 | 0.373 | 0.333 | 0.618 | 0.584 | 0.672 | 0.567 | 0.598 | – | – | – | – | –
NCI-H2342 | – | – | – | – | – | 0.511 | 0.568 | 0.531 | 0.482 | 0.516 | – | – | – | – | – | – | – | – | – | –
ChaGo-K-1 | 1.03 | 1.59 | 0.962 | 0.603 | 0.497 | 0.956 | 0.954 | 0.84 | 0.719 | 0.479 | 0.653 | 0.699 | 0.756 | 0.487 | 0.538 | – | – | – | – | –
NCI-H650 | – | – | – | – | – | 0.431 | 0.33 | 0.345 | 0.322 | 0.356 | 0.998 | 0.801 | 0.834 | 0.821 | 0.938 | 0.79 | 0.915 | 0.503 | 0.455 | 0.179
NCI-H661 | – | – | – | – | – | 0.405 | 0.403 | 0.41 | 0.394 | 0.421 | 0.398 | 0.524 | 0.525 | 0.373 | 0.398 | 0.543 | 0.609 | 0.556 | 0.474 | 0.262
SW 900 | – | – | – | – | – | 0.578 | 0.524 | 0.616 | 0.451 | 0.653 | – | – | – | – | – | – | – | – | – | –
ABC-1 | – | – | – | – | – | 0.707 | 0.614 | 0.886 | 0.64 | 0.513 | 0.896 | 0.64 | 0.882 | 0.631 | 0.658 | 0.834 | 0.993 | 0.603 | 0.536 | 0.165
NCI-H1648 | – | – | – | – | – | 0.271 | 0.497 | 0.271 | 0.262 | 0.288 | – | – | – | – | – | – | – | – | – | –
NCI-H596 | 0.968 | 0.978 | 0.937 | 1.15 | 0.943 | – | – | – | – | – | 0.412 | 0.419 | 0.378 | 0.368 | 0.391 | 1.04 | 1.01 | 0.882 | 1.21 | 0.907
IA-LM | 0.887 | 0.994 | 0.817 | 0.85 | 0.236 | – | – | – | – | – | 0.396 | 0.399 | 0.31 | 0.369 | 0.359 | 0.459 | 1.02 | 0.927 | 0.792 | 0.553
A549 | 1.28 | 1.27 | 0.948 | 0.615 | 0.0764 | – | – | – | – | – | 0.486 | 0.511 | 0.447 | – | 0.456 | 0.621 | 0.596 | 0.229 | 0.148 | 0.174
LCLC-103H | – | – | – | – | – | 0.49 | 0.456 | 0.469 | 0.426 | 0.469 | 0.573 | 0.57 | 0.757 | 0.483 | 0.551 | 1.07 | 1.12 | 0.697 | 0.705 | 0.6
NCI-H358 | – | – | – | – | – | 0.187 | 0.135 | 0.152 | 0.143 | 0.125 | 0.37 | 0.312 | 0.412 | 0.182 | 0.453 | 0.622 | 0.494 | 0.311 | 0.301 | 0.187
